How the values were obtained:
[1] = Selectivity index, ratio of IC50 for human MRC5 cells to IC50 for Trypanosoma brucei Lister 427, antigenic type MiTat 1.2, clone 221a; type: toxicity; conditions: MRC5 cells versus Trypanosoma brucei Lister 427, read-out: Ratio IC50
MRC5 = assay: Cytotoxicity against human MRC5 cells assessed as reduction in cell viability after 48 hrs by MTT assay; type: cell-based; conditions: MRC5, 48 h
[2] = Cytotoxicity against human THP1 cells; type: cell-based; conditions: THP-1 cells, read-out: TC50 (the source's name)
[3] = Selectivity index, ratio of TC50 for human THP1 cells to IC50 for Leishmania major MHOM/IL/80/Friedlin amastigotes; type: toxicity; conditions: THP1 cells versus Leishmania major amastigotes, read-out: Selectivity Index
Leishmania major [4] = assay: Leishmaniacidal activity against Leishmania major MHOM/IL/80/Friedlin promastigotes after 72 hrs by MTT assay; type: functional, organism-based
Leishmania major [5] = assay: Leishmaniacidal activity against Leishmania major MHOM/IL/80/Friedlin amastigotes infected in human THP1 cells after 72 hrs by luciferase luminescence assay; type: functional, organism-based; conditions: THP-1, 72 h
Trypanosoma brucei = assay: Trypanocidal activity against Trypanosoma brucei Lister 427, antigenic type MiTat 1.2, clone 221a after 72 hrs by alamarBlue assay; type: functional, organism-based; conditions: Lister 427, 72 h

Structure (SMILES)	selectivity ratio [1]	IC50 (MRC5) [nM]	CC50 [2] [nM]	selectivity ratio [3]	IC50 (Leishmania major [4]) [nM]	IC50 (Leishmania major [5]) [nM]	IC50 (Trypanosoma brucei) [nM]
CN(C)CCCN1C(=O)c2ccc3c4c(c(NCCCn5cc(COCCOCCOCCO[C@@H]6O[C@H](CO)[C@@H](O[C@H]7O[C@H](CO)[C@@H](O)[C@H](O)[C@H]7O)[C@H](O)[C@H]6O)nn5)cc(c24)C1=O)C(=O)N(CCCN(C)C)C3=O	82.5	3300	> 10000	> 2.2	160	4520	40
CN(C)CCCN1C(=O)c2ccc3c4c(c(NCCCn5cc(COCCOCCOCCO[C@H]6O[C@H](CO)[C@@H](O)[C@H](O)[C@@H]6O)nn5)cc(c24)C1=O)C(=O)N(CCCN(C)C)C3=O	10.5	1360			6120		130
CN(C)CCCN1C(=O)c2ccc3c4c(c(NCc5cn(CCO[C@@H]6O[C@H](CO)[C@@H](O)[C@H](O)[C@H]6O)nn5)cc(c24)C1=O)C(=O)N(CCCN(C)C)C3=O			8650	2		4420	17
CN(C)CCCN1C(=O)c2ccc3c4c(c(NCCCn5cc(CO[C@@H]6O[C@H](CO)[C@@H](O)[C@H](O)[C@H]6O)nn5)cc(c24)C1=O)C(=O)N(CCCN(C)C)C3=O	1.2	260	1440	2.2	430	660	220
CN(C)CCCN1C(=O)c2ccc3c4c(c(NCCCn5cc(CO[C@@H]6O[C@H](CO)[C@@H](O[C@H]7O[C@H](CO)[C@@H](O)[C@H](O)[C@H]7O)[C@H](O)[C@H]6O)nn5)cc(c24)C1=O)C(=O)N(CCCN(C)C)C3=O	16.1	4340			6790		270
CN(C)CCCc1cc2c3c(c(NCCCn4cc(CO[C@@H]5O[C@H](CO)[C@@H](O[C@@H]6O[C@H](CO)[C@H](O)[C@H](O)[C@H]6O)[C@H](O)[C@H]5O)nn4)cc4c3c1C(=O)N(CCCN(C)C)C4=O)C(=O)N(CCCN(C)C)C2=O	17.9	6610			20000		370
CN(C)CCCc1cc2c3c(c(NCCCn4cc(CO[C@@H]5O[C@H](CO)[C@@H](O)[C@H](O)[C@H]5O)nn4)cc4c3c1C(=O)N(CCCN(C)C)C4=O)C(=O)N(CCCN(C)C)C2=O	5.7	850	> 10000	> 3.8	490	2630	150
CCCNc1cc2c3c(ccc4c3c1C(=O)N(CCCN(C)C)C4=O)C(=O)N(CCCN(C)C)C2=O	40		3650	6		610	9
CN(C)CCCN1C(=O)c2ccc3c4c(c(NCCCn5cc(CCO[C@H]6O[C@H](CO)[C@@H](O)[C@H](O)[C@@H]6O)nn5)cc(c24)C1=O)C(=O)N(CCCN(C)C)C3=O	0.9	170			2790		180
CN(C)CCCc1cc2c3c(c(NCCCn4cc(CO[C@H]5O[C@H](CO)[C@@H](O)[C@H](O)[C@@H]5O)nn4)cc4c3c1C(=O)N(CCCN(C)C)C4=O)C(=O)N(CCCN(C)C)C2=O	15	6610	> 10000		180	> 5000	440
CN(C)CCCN1C(=O)c2ccc3c4c(c(NCc5cn([C@@H]6O[C@H](CO)[C@@H](O)[C@H](O)[C@H]6O)nn5)cc(c24)C1=O)C(=O)N(CCCN(C)C)C3=O			8100	2.1		3910	24
CN(C)CCCc1cc2c3c(c(NCCCn4cc(CCO[C@H]5O[C@H](CO)[C@@H](O)[C@H](O)[C@@H]5O)nn4)cc4c3c1C(=O)N(CCCN(C)C)C4=O)C(=O)N(CCCN(C)C)C2=O	16.6	5150	> 10000		1970	> 5000	310
CN(C)CCCc1cc2c3c(c(NCCCn4cc(CO[C@@H]5O[C@H](CO)[C@@H](O[C@H]6O[C@H](CO)[C@@H](O)[C@H](O)[C@H]6O)[C@H](O)[C@H]5O)nn4)cc4c3c1C(=O)N(CCCN(C)C)C4=O)C(=O)N(CCCN(C)C)C2=O	30.8	9560			11400		310
CN(C)CCCc1cc2c3c(c(NCCCn4cc(CCO[C@@H]5O[C@H](CO)[C@@H](O[C@H]6O[C@H](CO)[C@@H](O)[C@H](O)[C@H]6O)[C@H](O)[C@H]5O)nn4)cc4c3c1C(=O)N(CCCN(C)C)C4=O)C(=O)N(CCCN(C)C)C2=O	32.7	11100			2890		340
CN(C)CCCN1C(=O)c2ccc3c4c(c(NCCCn5cc(CCO[C@@H]6O[C@H](CO)[C@@H](O[C@H]7O[C@H](CO)[C@@H](O)[C@H](O)[C@H]7O)[C@H](O)[C@H]6O)nn5)cc(c24)C1=O)C(=O)N(CCCN(C)C)C3=O	1.7	220	1520	3.5	4680	430	130
CN(C)CCCN1C(=O)c2ccc3c4c(c(NCCCn5cc(CO[C@H]6O[C@H](CO)[C@@H](O)[C@H](O)[C@@H]6O)nn5)cc(c24)C1=O)C(=O)N(CCCN(C)C)C3=O	1.1	230	1780	3.8	2410	470	210
CN(C)CCCc1cc2c3c(c(NCCCn4cc(COCCOCCOCCO[C@@H]5O[C@H](CO)[C@@H](O[C@@H]6O[C@H](CO)[C@H](O)[C@H](O)[C@H]6O)[C@H](O)[C@H]5O)nn4)cc4c3c1C(=O)N(CCCN(C)C)C4=O)C(=O)N(CCCN(C)C)C2=O	8.5	7040			8980		830
CCCNc1cc2c3c(c(CCCN(C)C)cc4c3c1C(=O)N(CCCN(C)C)C4=O)C(=O)N(CCCN(C)C)C2=O	26.7	80			740	3800	3
CN(C)CCCN1C(=O)c2ccc3c4c(c(NCCCn5cc(CCO[C@@H]6O[C@H](CO)[C@@H](O[C@@H]7O[C@H](CO)[C@H](O)[C@H](O)[C@H]7O)[C@H](O)[C@H]6O)nn5)cc(c24)C1=O)C(=O)N(CCCN(C)C)C3=O	3.5	1170	> 10000	> 2.1	1930	4710	330
CN(C)CCCc1cc2c3c(c(NCCCn4cc(CCO[C@@H]5O[C@H](CO)[C@@H](O[C@@H]6O[C@H](CO)[C@H](O)[C@H](O)[C@H]6O)[C@H](O)[C@H]5O)nn4)cc4c3c1C(=O)N(CCCN(C)C)C4=O)C(=O)N(CCCN(C)C)C2=O	13.5	7160	> 10000		280	> 5000	530
CN(C)CCCN1C(=O)c2ccc3c4c(c(NCCCn5cc(CO[C@@H]6O[C@H](CO)[C@@H](O[C@@H]7O[C@H](CO)[C@H](O)[C@H](O)[C@H]7O)[C@H](O)[C@H]6O)nn5)cc(c24)C1=O)C(=O)N(CCCN(C)C)C3=O	3.4	1240	9290	2	1030	4720	370
CN(C)CCCc1cc2c3c(c(NCCCn4cc(COCCOCCOCCO[C@@H]5O[C@H](CO)[C@@H](O)[C@H](O)[C@H]5O)nn4)cc4c3c1C(=O)N(CCCN(C)C)C4=O)C(=O)N(CCCN(C)C)C2=O	25.3	8850	> 10000	> 2.8	270	3590	350
CN(C)CCCc1cc2c3c(c(NCCCn4cc(COCCOCCOCCO[C@@H]5O[C@H](CO)[C@@H](O[C@H]6O[C@H](CO)[C@@H](O)[C@H](O)[C@H]6O)[C@H](O)[C@H]5O)nn4)cc4c3c1C(=O)N(CCCN(C)C)C4=O)C(=O)N(CCCN(C)C)C2=O	> 51	> 20000			10700		390
CN(C)CCCc1cc2c3c(c(NCCCn4cc(COCCOCCOCCO[C@H]5O[C@H](CO)[C@@H](O)[C@H](O)[C@@H]5O)nn4)cc4c3c1C(=O)N(CCCN(C)C)C4=O)C(=O)N(CCCN(C)C)C2=O	34	6470			4750		190

Source: ChEMBL document CHEMBL4330066, “Carbohydrate-naphthalene diimide conjugates as potential antiparasitic drugs: Synthesis, evaluation and structure-activity studies” (Eur J Med Chem, 2019)
